Test results: US20240190849A1, “AMINOPYRIMIDINE COMPOUNDS AND METHODS OF THEIR USE” (TYRA BIOSCIENCES, INC., priority 2021, published 2024)

Assays:
Conditions in all cases: FGFR binding data
[1] = target: T1, FGFR2 (Homo sapiens, UniProt P21802); assay: Kinase binding assay (kinase-tagged T7 phage, affinity beads, qPCR readout), FGFR2
T1 construct: made in house; host or cells: E. coli derived from BL21, infected with T7 phage
Procedure: (§1) Kinase-tagged T7 phage strains were prepared in an E. coli host derived from the BL21 strain. E. coli were grown to log-phase and infected with T7 phage and incubated with shaking at 32° C. until lysis. The lysates were centrifuged and filtered to remove cell debris. Streptavidin-coated magnetic beads were treated with biotinylated small molecule ligands for 30 minutes at room temperature to generate affinity resins for kinase assays. The liganded beads were blocked with excess biotin and washed with blocking buffer SeaBlock (Pierce), 1% BSA, 0.05% Tween 20, 1 mM DTT to remove unbound ligand and to reduce non-specific binding. Binding reactions were assembled by combining kinases, liganded affinity beads, and test compounds in 1× binding buffer (20% SeaBlock, 0.17×PBS, 0.05% Tween 20, 6 mM DTT).
(§2) Test compounds were prepared as 111× stocks in 100% DMSO. Kds were determined using an 11-point 3-fold compound dilution series with three DMSO control points. All compounds for Kd measurements are distributed by acoustic transfer (non-contact dispensing) in 100% DMSO. The compounds were then diluted directly into the assays such that the final concentration of DMSO was 0.9%. All reactions performed in polypropylene 384-well plate. Each was a final volume of 0.02 ml. The assay plates were incubated at room temperature with shaking for 1 hour and the affinity beads were washed with wash buffer (1×PBS, 0.05% Tween 20). The beads were then re-suspended in elution buffer (1×PBS, 0.05% Tween 20, 0.5 μM non-biotinylated affinity ligand) and incubated at room temperature with shaking for 30 minutes. The kinase concentration in the eluates was measured by qPCR.
(§3) Binding constants were calculated with a standard dose-response curve using the Hill equation: […]
(§4) The Hill Slope was set to −1. Curves were fitted using a non-linear least square fit with the Levenberg-Marquardt algorithm.

[2] = target: T2, FGFR3 (Homo sapiens, UniProt P22607); assay: Kinase binding assay (kinase-tagged T7 phage, affinity beads, qPCR readout), FGFR3
T2 construct: made in house; host or cells: E. coli derived from BL21, infected with T7 phage
Procedure: as §1, §2, §3, §4

[3] = target: T3, FGFR3 (V555M) (Homo sapiens, UniProt P22607, V555M); assay: Kinase binding assay (kinase-tagged T7 phage, affinity beads, qPCR readout), FGFR3 (V555M)
T3 construct: made in house; host or cells: E. coli derived from BL21, infected with T7 phage
Procedure: as §1, §2, §3, §4

[4] = target: T4, FGFR1 (Homo sapiens, UniProt P11362); assay: Kinase binding assay (kinase-tagged T7 phage, affinity beads, qPCR readout), FGFR1
T4 construct: made in house; host or cells: E. coli derived from BL21, infected with T7 phage
Procedure: as §1, §2, §3, §4

T4 sequence (P11362 22-822): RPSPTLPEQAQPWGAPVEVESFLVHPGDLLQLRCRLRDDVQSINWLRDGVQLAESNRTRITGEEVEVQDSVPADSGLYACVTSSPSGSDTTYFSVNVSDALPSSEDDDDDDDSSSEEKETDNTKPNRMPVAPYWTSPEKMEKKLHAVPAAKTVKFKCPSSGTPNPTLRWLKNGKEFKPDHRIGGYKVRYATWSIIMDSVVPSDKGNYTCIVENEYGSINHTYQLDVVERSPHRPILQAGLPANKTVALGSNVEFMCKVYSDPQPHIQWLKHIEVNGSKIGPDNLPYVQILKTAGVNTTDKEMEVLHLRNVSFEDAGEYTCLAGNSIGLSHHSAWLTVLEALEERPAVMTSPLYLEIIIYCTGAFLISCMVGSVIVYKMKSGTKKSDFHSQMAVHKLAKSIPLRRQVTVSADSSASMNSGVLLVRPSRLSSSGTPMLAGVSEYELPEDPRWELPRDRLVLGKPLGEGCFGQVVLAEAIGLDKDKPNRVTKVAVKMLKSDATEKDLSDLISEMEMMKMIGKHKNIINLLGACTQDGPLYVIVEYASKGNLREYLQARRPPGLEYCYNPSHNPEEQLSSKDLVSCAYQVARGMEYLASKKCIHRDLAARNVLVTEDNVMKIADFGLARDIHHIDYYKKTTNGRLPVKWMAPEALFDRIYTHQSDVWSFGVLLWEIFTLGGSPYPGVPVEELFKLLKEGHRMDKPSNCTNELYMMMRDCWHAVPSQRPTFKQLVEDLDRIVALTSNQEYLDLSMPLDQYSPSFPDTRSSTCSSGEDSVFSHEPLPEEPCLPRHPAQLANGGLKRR
T2 sequence (P22607 23-806): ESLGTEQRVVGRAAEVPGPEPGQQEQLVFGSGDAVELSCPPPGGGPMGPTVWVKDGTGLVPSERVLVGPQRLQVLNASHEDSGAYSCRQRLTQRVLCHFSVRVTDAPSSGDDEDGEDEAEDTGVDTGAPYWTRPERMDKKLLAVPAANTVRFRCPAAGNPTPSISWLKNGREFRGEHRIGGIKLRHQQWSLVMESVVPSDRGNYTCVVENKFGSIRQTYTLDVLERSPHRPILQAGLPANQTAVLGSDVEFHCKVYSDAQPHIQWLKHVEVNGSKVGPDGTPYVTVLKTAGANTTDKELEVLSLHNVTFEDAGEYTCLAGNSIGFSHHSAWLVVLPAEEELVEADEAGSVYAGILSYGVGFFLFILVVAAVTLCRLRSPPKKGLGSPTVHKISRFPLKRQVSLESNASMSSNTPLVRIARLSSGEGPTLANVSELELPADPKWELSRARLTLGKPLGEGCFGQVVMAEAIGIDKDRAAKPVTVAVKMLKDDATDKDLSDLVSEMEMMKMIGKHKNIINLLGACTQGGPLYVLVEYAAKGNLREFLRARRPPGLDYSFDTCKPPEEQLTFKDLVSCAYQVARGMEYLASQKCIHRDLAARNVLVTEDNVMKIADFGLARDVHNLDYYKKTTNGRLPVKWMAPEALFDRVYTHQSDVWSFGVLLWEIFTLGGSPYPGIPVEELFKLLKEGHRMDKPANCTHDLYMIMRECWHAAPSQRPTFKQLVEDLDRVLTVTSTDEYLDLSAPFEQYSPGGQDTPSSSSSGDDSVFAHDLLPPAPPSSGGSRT
T3 sequence (P22607 23-806 V555M): as the sequence (P22607 23-806) above, with V533M counted along it
T1 sequence (P21802 22-821): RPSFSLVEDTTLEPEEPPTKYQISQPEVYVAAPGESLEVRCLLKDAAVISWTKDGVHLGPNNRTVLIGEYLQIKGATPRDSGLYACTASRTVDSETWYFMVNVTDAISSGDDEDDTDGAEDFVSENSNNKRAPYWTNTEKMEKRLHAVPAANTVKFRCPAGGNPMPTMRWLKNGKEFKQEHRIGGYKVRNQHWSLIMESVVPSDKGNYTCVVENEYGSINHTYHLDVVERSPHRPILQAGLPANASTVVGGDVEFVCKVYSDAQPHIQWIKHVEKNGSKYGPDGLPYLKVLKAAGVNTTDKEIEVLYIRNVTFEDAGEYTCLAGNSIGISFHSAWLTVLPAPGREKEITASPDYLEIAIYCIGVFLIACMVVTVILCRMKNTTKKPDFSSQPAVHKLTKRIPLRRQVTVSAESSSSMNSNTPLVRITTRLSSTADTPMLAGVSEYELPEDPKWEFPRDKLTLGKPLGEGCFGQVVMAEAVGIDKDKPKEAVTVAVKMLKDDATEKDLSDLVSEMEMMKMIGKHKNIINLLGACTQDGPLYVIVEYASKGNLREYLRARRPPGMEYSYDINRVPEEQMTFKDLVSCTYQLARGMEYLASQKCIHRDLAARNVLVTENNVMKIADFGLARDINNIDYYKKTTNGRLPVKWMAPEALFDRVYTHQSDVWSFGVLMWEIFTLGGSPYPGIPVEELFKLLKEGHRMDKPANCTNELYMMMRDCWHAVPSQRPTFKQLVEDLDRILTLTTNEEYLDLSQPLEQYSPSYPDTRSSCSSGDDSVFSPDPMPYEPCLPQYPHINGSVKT

C=CC(=O)Nc1ccc2c(c1)c(C)cn2-c1nc(Nc2cc(C)nn2C)ncc1Cl [Example 56, N-[1-[5-chloro-2-[(2,5-dimethylpyrazol-3-yl)amino]-pyrimidin-4-yl]-3-methyl-indol-5-yl]prop-2-enamide]
Kd [1]: 0.1 to 100 nM | Kd [2]: 0.1 to 100 nM | Kd [3]: 0.1 to 100 nM | Kd [4]: 100 to 250 nM

C=CC(=O)Nc1ccc2c(-c3nc(Nc4ccc(N(C)CCN(C)C)c(OC)c4)ncc3Cl)cn(C)c2c1 [Example 58, N-[3-[5-chloro-2-[4-[2-(dimethylamino)ethyl-methyl-amino]-3-methoxy-anilino]-pyrimidin-4-yl]-1-methyl-indol-6-yl]prop-2-enamide]
Kd [1]: 0.1 to 100 nM | Kd [2]: 0.1 to 100 nM | Kd [3]: 0.1 to 100 nM | Kd [4]: 0.1 to 100 nM

C=CC(=O)Nc1ccc2c(-c3nc(Nc4ccc(N5CCN(C)CC5)nc4)ncc3Cl)cn(C)c2c1 [Example 59, N-[3-[5-chloro-2-[[6-(4-methylpiperazin-1-yl)-3-pyridyl]amino]pyrimidin-4-yl]-1-methyl-indol-6-yl]prop-2-enamide]
Kd [1]: 0.1 to 100 nM | Kd [2]: 0.1 to 100 nM | Kd [3]: 0.1 to 100 nM | Kd [4]: 0.1 to 100 nM

C=CC(=O)Nc1cc2c(C)cn(-c3nc(Nc4ccc(N5CCOCC5)cc4)ncc3Cl)c2cc1C [Example 60, N-[1-[5-chloro-2-(4-morpholinoanilino)-pyrimidin-4-yl]-3,6-dimethyl-indol-5-yl]prop-2-enamide]
Kd [1]: > 1000 nM | Kd [2]: > 1000 nM | Kd [3]: 100 to 250 nM | Kd [4]: > 1000 nM

C=CC(=O)Nc1ccc2c(-c3nc(Nc4ccnn4C)ncc3Cl)cn(C)c2c1 [Example 62, N-[3-[5-chloro-2-[(2-methylpyrazol-3-yl)amino]pyrimidin-4-yl]-1-methyl-indol-6-yl]prop-2-enamide]
Kd [1]: 0.1 to 100 nM | Kd [2]: 0.1 to 100 nM | Kd [3]: 0.1 to 100 nM | Kd [4]: 250 to 1000 nM

C=CC(=O)Nc1ccc2c(-c3nc(Nc4cc(C)nn4C)ncc3Cl)cn(C)c2c1 [Example 63, N-[3-[5-chloro-2-[(2,5-dimethylpyrazol-3-yl)amino]-pyrimidin-4-yl]-1-methyl-indol-6-yl]prop-2-enamide]
Kd [1]: 0.1 to 100 nM | Kd [2]: 0.1 to 100 nM | Kd [3]: 0.1 to 100 nM | Kd [4]: 250 to 1000 nM

C=CC(=O)Nc1ccc2c(c1)c(C)cn2-c1nc(Nc2ccc(CN3CCN(C)CC3)cc2)ncc1Cl [Example 65, N-[1-[5-chloro-2-[4-[(4-methylpiperazin-1-yl)methyl]-anilino]pyrimidin-4-yl]-3-methyl-indol-5-yl]prop-2-enamide]
Kd [1]: 0.1 to 100 nM | Kd [2]: 0.1 to 100 nM | Kd [3]: 0.1 to 100 nM | Kd [4]: 0.1 to 100 nM

C=CC(=O)Nc1ccc2c(c1)c(C)cn2-c1nc(Nc2ccc(CN3CCOCC3)c(C)c2)ncc1Cl [Example 66, N-[1-[5-chloro-2-[3-methyl-4-(morpholinomethyl)anilino]pyrimidin-4-yl]-3-methyl-indol-5-yl]prop-2-enamide]
Kd [1]: 0.1 to 100 nM | Kd [2]: 0.1 to 100 nM | Kd [3]: 0.1 to 100 nM | Kd [4]: 0.1 to 100 nM

C=CC(=O)Nc1cc(C)c2c(c1)c(C)cn2-c1nc(Nc2cnn(C)c2)ncc1Cl [Example 71, N-[1-[5-chloro-2-[(1-methylpyrazol-4-yl)amino]pyrimidin-4-yl]-3,7-dimethyl-indol-5-yl]prop-2-enamide]
Kd [1]: > 1000 nM | Kd [2]: > 1000 nM | Kd [3]: > 1000 nM | Kd [4]: > 1000 nM

C=CC(=O)Nc1ccc2c(c1)c(C)cn2-c1nc(Nc2cnnn2C)ncc1Cl [Example 72, N-[1-[5-chloro-2-[(3-methyltriazol-4-yl)amino]pyrimidin-4-yl]-3-methyl-indol-5-yl]prop-2-enamide]
Kd [1]: 0.1 to 100 nM | Kd [2]: 0.1 to 100 nM | Kd [3]: 0.1 to 100 nM | Kd [4]: 0.1 to 100 nM

C=CC(=O)Nc1ccc2c(c1)c(C)cn2-c1nc(Nc2cccc(N3CCN(C)CC3)c2)ncc1Cl [Example 73, N-[1-[5-chloro-2-[3-(4-methylpiperazin-1-yl)anilino]-pyrimidin-4-yl]-3-methyl-indol-5-yl]prop-2-enamide]
Kd [1]: 0.1 to 100 nM | Kd [2]: 0.1 to 100 nM | Kd [3]: 0.1 to 100 nM | Kd [4]: 0.1 to 100 nM

C=CC(=O)Nc1cc(C)c2c(c1)c(C)cn2-c1nc(Nc2ccc(N3CCOCC3)cc2)ncc1Cl [Example 74, N-[1-[5-chloro-2-(4-morpholinoanilino)pyrimidin-4-yl]-3,7-dimethyl-indol-5-yl]prop-2-enamide]
Kd [1]: 0.1 to 100 nM | Kd [2]: 0.1 to 100 nM | Kd [3]: 0.1 to 100 nM | Kd [4]: 0.1 to 100 nM

C=CC(=O)Nc1ccc2c(c1)c(C)cn2-c1nc(Nc2ccc(CN3CCOCC3)cc2)ncc1Cl [Example 75, N-[1-[5-chloro-2-[4-(morpholinomethyl)anilino]pyrimidin-4-yl]-3-methyl-indol-5-yl]prop-2-enamide]
Kd [1]: 0.1 to 100 nM | Kd [2]: 0.1 to 100 nM | Kd [3]: 0.1 to 100 nM | Kd [4]: 0.1 to 100 nM

C=CC(=O)Nc1ccc2c(c1)c(C)cn2-c1ccnc(Nc2cnn(C)c2)n1 [Example 79, N-[3-methyl-1-[2-[(1-methylpyrazol-4-yl)amino]pyrimidin-4-yl]indol-5-yl]prop-2-enamide]
Kd [1]: 0.1 to 100 nM | Kd [2]: 0.1 to 100 nM | Kd [3]: 0.1 to 100 nM | Kd [4]: 0.1 to 100 nM

C=CC(=O)Nc1ccc2c(c1)c(C)cn2-c1ccnc(Nc2ccnn2C)n1 [Example 82, N-[3-methyl-1-[2-[(2-methylpyrazol-3-yl)amino]pyrimidin-4-yl]indol-5-yl]prop-2-enamide]
Kd [1]: 0.1 to 100 nM | Kd [2]: 0.1 to 100 nM | Kd [3]: 0.1 to 100 nM | Kd [4]: 100 to 250 nM

C=CC(=O)Nc1cnc2c(c1)c(C)cn2-c1ccnc(Nc2ccnn2C)n1 [Example 83, N-[3-methyl-1-[2-[(2-methylpyrazol-3-yl)amino]pyrimidin-4-yl]pyrrolo[2,3-b]pyridin-5-yl]prop-2-enamide]
Kd [1]: 0.1 to 100 nM | Kd [2]: 0.1 to 100 nM | Kd [3]: 0.1 to 100 nM | Kd [4]: 0.1 to 100 nM

C=CC(=O)Nc1cc(C)c2c(c1)c(C)cn2-c1nc(Nc2cnn(C)c2)ncc1Cl [Example 84, N-[1-[5-chloro-2-[(1-methylpyrazol-4-yl)amino]pyrimidin-4-yl]-3,7-dimethyl-indol-5-yl]prop-2-enamide]
Kd [1]: 0.1 to 100 nM | Kd [2]: 0.1 to 100 nM | Kd [3]: 0.1 to 100 nM | Kd [4]: 0.1 to 100 nM

C=CC(=O)Nc1ccc2c(c1)c(C)cn2-c1nc(Nc2ccc(CN3CCN(C)CC3)c(F)c2)ncc1Cl [Example 86, N-[1-[5-chloro-2-[3-fluoro-4-[(4-methylpiperazin-1-yl)methyl]-anilino]pyrimidin-4-yl]-3-methyl-indol-5-yl]prop-2-enamide]
Kd [1]: 0.1 to 100 nM | Kd [2]: 0.1 to 100 nM | Kd [3]: 0.1 to 100 nM | Kd [4]: 0.1 to 100 nM

C=CC(=O)Nc1ccc2c(c1)c(C)nn2-c1ccnc(Nc2ccnn2C)n1 [Example 87, N-[3-methyl-1-[2-[(2-methylpyrazol-3-yl)amino]pyrimidin-4-yl]indazol-5-yl]prop-2-enamide]
Kd [1]: > 1000 nM | Kd [2]: > 1000 nM | Kd [3]: > 1000 nM | Kd [4]: > 1000 nM

C=CC(=O)Nc1ccc2c(c1)c(C)cn2-c1nc(Nc2cccc(N3CCN(CCO)CC3)c2)ncc1Cl [Example 88, N-[1-[5-chloro-2-[3-[4-(2-hydroxyethyl)piperazin-1-yl]anilino]pyrimidin-4-yl]-3-methyl-indol-5-yl]prop-2-enamide]
Kd [1]: 0.1 to 100 nM | Kd [2]: 0.1 to 100 nM | Kd [3]: 0.1 to 100 nM | Kd [4]: 0.1 to 100 nM
